Holding throughout (format): cell-based, human
The subject of assay [1] is Huh-7.5 cells. The experiment in a line: GPC3, Tsg101 and CD63 expression in HCC cells by fluorescence microscopy and Western blot. Conditions: for GPC3 and Tsg101 expression: fluorescence microscopy. Here is the method:
(§1) Huh7.5 cells were cultured in DMEM high glucose with 10% fetal calf serum (FBS), L-glutamine, 1 mM sodium pyruvate, and 0.1 mM non-essential amino acids with 1% penicillin and streptomycin. Huh-7.5 cells were transfected with CD63-GFP plasmid, and multiple stable cell lines expressing (Huh-7.5-CD63-GFP) were selected using G-418 (Sigma-Aldrich, St. Louis, MO) selection. Human cholangiocarcinoma cell line (HuCCA) and human embryonic kidney cell line (HEK 293) were purchased from ATCC. These two cell lines were cultured according to the instruction provided by the supplier and maintained with regular medium change every three days. Torin 1 was purchased from EMD Millipore, Burlington, MA (475991-10MG), and Bafilomycin A1 were purchased from Cell Signaling Technology, Danvers, MA (54645S). Exosome-free fetal bovine serum was purchased from ThermoFisher Waltham, MA (A2720803). Monoclonal rabbit and mouse antibodies were used as primary antibodies in western blot as well as fluorescent microscopy imaging. Anti-CD81 monoclonal rabbit—MA5-13548—and anti-glypican3 monoclonal rabbit—MA5-16368 purchased from ThermoFisher. Anti-ARF6 monoclonal rabbit—5740S—and anti-Beta actin monoclonal rabbit—4970S purchased from Cell signaling, Anti-Tsg 101 monoclonal mouse sc-7964 purchased from Santa Cruz Biotechnology.
Western blotting was performed using a standard protocol. Cultured cells were harvested by the treatment of trypsin-EDTA (Life Technologies, Carlsbad, CA, USA) at different time points and were washed twice with PBS, then lysed in ice-cold RIPA buffer (Sigma-Aldrich, St. Louis, MO, USA) with a protease inhibitor (ThermoFisher Scientific, Waltham, MA, USA) and phosphatase inhibitor cocktail (Sigma-Aldrich, St. Louis, MO, USA). The total protein content of the extract was quantified using NanoDrop™ 2000 (ThermoFisher Scientific, Waltham, MA, USA). Cell lysates (approximately 20 μg of protein) were loaded by SDS-PAGE and transferred into a nitrocellulose membrane ([…] pore size, ThermoFisher Scientific, Waltham, MA, USA). […]
For orientation: In western blotting, separated proteins are transferred to a membrane and probed.

In assay [2] the test system is HCC cell lines (Huh-7, Huh-7PX, Huh-7.5, HLE). The experiment in a line: DQ-Red BSA endocytosis assay with Torin1 stimulation. As to conditions: Torin1 200 nM. The text has this:
(§2) FIGS. 9A-9H: Show Association between p62, autophagy status, and glypican 3 (GPC3) expression in HCC cell lines and normal hepatocytes. […] Scale bars=m. […] The results are expressed as the mean±standard deviation (SD). ***P<0.001. For each cell line 10 view fields were quantified. […] Scale bars=20 m. […] Scale bars=20 m.
DQ™ Red BSA (D12051, Thermo Scientific) is a fluorogenic substrate that is endocytosed in cells and traffics through early endosomes to late endosomes that then fuse with acidic hydrolase containing lysosomes. This leads to the formation of endo-lysosomes that degrade DQ-Red BSA, de-quenching the fluorescence of the dye attached to this cargo, therefore, produces bright red spots in endo-lysosomes. Equal number of cells was seeded in 6-well plate. Then, untreated and Torin1-treated live cells were incubated with DQ-Red BSA for one hour. After washing cells with PBS, cells were fixed with 4% paraformaldehyde and counterstained with Hoechst 33342 (H3570, Thermo Scientific). Cells were examined using fluorescent microscopy.
Next, it was confirmed whether HCC cell lines and non-transformed primary hepatocytes could recapitulate impaired autophagy and increased GPC3 expression specific to HCC. A panel of 6 HCC cell lines was examined for p62 expression levels compared to primary human hepatocytes (PHH) using immunocytochemistry (FIG. 9A). […]

The test system of assay [3] is CD63-GFP stable cell line (Huh-7.5-CD63-GFP). The experiment in a line: CD63-GFP expression by fluorescence microscopy after autophagy modulation. Conditions: increasing concentrations, 72 hours. How it is done: FIGS. 5A-5D: Show impaired autophagy promotes GPC3 accumulation in exosomes. CD63-GFP stable cell line was treated with increasing concentrations of Torin1 or Bafilomycin A1 for 72 hours.
as §1, with “Anti-ARF6 monoclonal rabbit—5740S—and anti-Beta actin monoclonal rabbit—4970S purchased from Cell signaling, Anti-Tsg 101 monoclonal mouse sc-7964 purchased from Santa Cruz Biotechnology.” left out

Assay [4] concerns autophagy-deficient HCC lines (Huh-7, Huh-7PX, Huh-7.5). The experiment in a line: p62 degradation by Western blot after Torin1 treatment.
Source text: as §2
PHHs or HCC cells were immobilized on glass slides and stained for p62 and glypican 3 by immunostaining. Exosomes and adherent cells were separated isolated from the cultures and lysates (20 μg of protein) prepared and examined for expression of p62, glypican 1, glypican 3 and exosome markers, CD9, TSG101 by SDS-PAGE electrophoresis and Western blotting. Cells were lysed in ice-cold lysis buffer (50 mM Tris HCl pH 8.0, 140 mM NaCl, 1.5 mM MgCl2, 0.5% NP-40 with complete protease inhibitor from Invitrogen) for 10 minutes in ice (about 1×10^6 cells/200 μL). Cells pelleted by low-speed centrifugation. The detergent compatible (DC) protein assay determined protein concentration. Samples were boiled for 10 minutes at 80° C. in the presence of 1× sodium dodecyl sulfate-polyacrylamide gel electrophoresis (SDS-PAGE)-loading buffer (250 mM Tris-HCl pH 6.8, 40% glycerol, 8% SDS, 0.57M β-mercaptoethanol, 0.12% bromophenol blue). Approximately 20 μg of protein was loaded onto 12% SDS-PAGE and transferred into a nitrocellulose membrane (LC2001 Thermo Scientific). […]

Assay [5] relates to Huh-7.5 cells. The experiment in a line: Exosome and microvesicle production by immuno-magnetic bead affinity flow cytometry. As to conditions: 72 hours; for exosome production and GPC3 positive exosomes: CD63 beads. Here is the method: Cells were cultured in exosome-depleted medium three days before the EV analysis. Briefly, cellular debris was removed from the culture supernatant by centrifugation at 2000 g for 30 minutes. Cleared supernatants were transferred to a new tube and mixed with 0.5 volumes of total EV isolation reagent from Invitrogen Carlsbad, CA (4478359). Tubes were incubated at 40 C overnight. The following day samples were centrifuged at 10,000 g for one hour at 40 C. Carefully removed supernatant, and EV pellet was resuspended in PBS and stored at […]. EVs concentration and size distribution were determined using NanoSight (Model NTA3300 with 532 nm green laser module, Malvern, Worcestershire, UK). Biotin anti-human CD63 antibody (Clone: H5C6) was purchased from BioLegend, San Diego, CA (353018). Biotin-conjugated Annexin A1 antibody was purchased from FabGennix Frisco, TX (ANXA1-BIOTIN). Biotin conjugated heparin was purchased from Sigma-Aldrich, Saint Louis, MO (B9806-10MG). Anti-glypican-3 (sc-390587 AF488), Anti-ARF6 (sc-7971 FITC), and Anti-CD81 (sc-166029 PE) were purchased from Santa Cruz Biotechnology, Santa Cruz, CA.
Streptavidin-coated magnetic beads were purchased from Invitrogen Carlsbad, CA (10608D). Beads were prewashed in phosphate buffer saline (PBS) and then incubated with biotinylated antibodies for one hour. Antibodies to CD63 or Annexin A1 were used at a proportion of 4 μg/5 mg of beads, or biotinylated heparin was used at 100 μg/1 mg of beads. […] Following this step, the EV-bead complex was incubated with fluorescence-labeled antibodies diluted in 100 μl PBS 1% BSA for one hour at room temperature. Beads were washed in PBS 1% BSA and then analyzed on a Becton-Dickinson flow cytometer (BD FACS Celesta) using BD FACSDiva Software 6.0, San Jose, CA. […]
The bead-based assay was used to verify the production of microvesicles and exosomes by autophagy modulation. […] The impact of autophagy modulation on the production of exosomes and microvesicles was quantified by flow analysis. […] The next day captured EVs were analyzed after staining with […] by flow cytometry. […]
On the technique in general: Flow cytometry measures light scatter and fluorescence of single cells or particles in a stream.

Molecules are shown by their SMILES.

On to `CCC(=O)N1CCN(c2ccc(-n3c(=O)ccc4cnc5ccc(-c6cnc7ccccc7c6)cc5c43)cc2C(F)(F)F)CC1` [Torin1], for which, in assay [1], the “GPC3 and Tsg101 expression” value is “degrades GPC3 and Tsg101”. In addition, the “GPC3 and CD63 levels by Western blot” value in assay [1] (two concentrations, 72 hours) is “leads to GPC3 and CD63 degradation”. Also, the DQ-BSA fluorescence signal result is reported as “could only be induced following Torin1 treatment” in assay [2] (autophagy-deficient HCC lines (Huh-7, Huh-7PX, Huh-7.5)) and “increased” in assay [2] (autophagy-sufficient HLE cells). For the same compound, the CD63-GFP expression entry in assay [3] is on record as “degrades CD63-GFP chimera protein”. In addition, in assay [4], the p62 levels result is “decreased p62 levels”. Further, the ARF6 positive microvesicles entry in assay [5] (Annexin A1 beads) is “promote ARF6 positive microvesicles”. Moreover, the “exosome production and GPC3 positive exosomes” value in assay [5] is “decreased total exosome production and glypican3 positive exosomes”.

Take `CO/C1=C\C(C)=C\[C@@H](C)[C@@H](O)[C@@H](C)C/C(C)=C/C=C/[C@H](OC)[C@@H]([C@@H](C)[C@@H](O)[C@H](C)[C@@]2(O)C[C@@H](O)[C@H](C)[C@@H](C(C)C)O2)OC1=O` [Bafilomycin A1]: the “GPC3 and Tsg101 expression” value in assay [1] is “accumulates GPC3 expression”. Also, the CD63-GFP expression result in assay [3] is recorded as “induced its expression”. In addition, the “exosome production and GPC3 positive exosomes” value in assay [5] is “increased exosome release and glypican-positive exosomes”.

Values taken from US20240036050A1, “Methods Of Detecting And Treating Hepatocellular Carcinoma” (The United States Government As Represented By The …, priority 2022, published 2024).
